B1: PDGF-BB: platelet-derived growth factor-BB protein (R&D Systems Inc.), homodimer of the PDGF B chain (protein, UniProt P01127 82-190, looked up)
Platelet-derived growth …: SLGSLTIAEPAMIAECKTRTEVFEISRRLIDRTNANFLVWPPCVEVQRCSGCCNNRNVQCRPTQVQLRPVQVRKIEIVRKKPIFKKATVTLEDHLACKCETVAAARPVT
modifications: homodimer
notes: platelet-derived growth factor-BB protein (R&D Systems Inc.), homodimer of the PDGF B chain

Columns and labels:
[1] = system: PDGF-BB expression in human vascular endothelial cells HUVEC; assay: Evaluation of PDGF-B production accelerating action in vascular endothelial cells (ELISA and quantitative RT-PCR); type: cell-based; conditions: retinoic acid at 1 μm or 10 μm vs DMSO solvent control, cultured 2 days, PDGF-BB in culture supernatant by ELISA and PDGF-B mRNA by quantitative PCR (FIG. 8)
Protocol: Evaluation of PDGF-B Production Accelerating Action in
Vascular Endothelial Cells
Human vascular endothelial cells HUVEC were sub-cultured in EGM-2 medium (Sanko Junyaku Co., Ltd.), and the fourth generation cells were suspended in Humedia-EG2 medium not containing VEGF-A (Kurabo Industries Ltd.), followed by disseminating in a collage-coated 24-well multiplate (Asahi Glass Co., Ltd.) at a ratio of 20,000 cells and culturing for 3 to 5 days at 37° C. until the cells reached confluence in the presence of 5% CO2. After replacing the medium with Humedia-EG2 medium (Kurabo Industries Ltd.) containing retinoic acid at 1 μm or 10 μm or DMSO used as a solvent control, culturing was further continued for 2 days. Following completion of culturing, the culture supernatant was recovered and PDGF-BB was quantified in accordance with the protocol provided using Human PDGF-BB Quantikine ELISA Kit (R&D Systems Inc.). […] One-step quantitative RT-PCR was then carried out on the PDGF-B gene for each sample using an equal volume of mRNA as template, using the primer pair of SEQ ID NO: 9 and SEQ ID NO: 10, and using QuantiFast SYBR Green RT-PCR Kit (Qiagen Inc.) for the reaction reagent and LightCycler (Roche Diagnostics GmbH) for the reaction apparatus. […]

[2] = system: adipose-derived mesenchymal stem cells MSC; assay: Evaluation of migration ability of mesenchymal stem cells (cell insert assay); type: cell-based; conditions: 5 ng/ml to 30 ng/ml in StemPro serum-free MSC medium; overnight; in comparison with PDGF-AA and PDGF-AB (FIG. 2)
Protocol: Evaluation of Migration Ability
Commercially available adipose-derived mesenchymal stem cells MSC were purchased and sub-cultured in MesenPro mesenchymal stem cell medium (Invitrogen Corp.). Then, PDGF-AA, PDGF-AB or PDGF-BB (R&D Systems Inc.) was added to StemPro serum-free MSC medium (Invitrogen Corp.) in 24-well culture plates at a concentration of 5 ng/ml to 30 ng/ml, and fibronectin-coated cell inserts (BD Bioscience Inc.) were placed thereon followed by seeding 50,000 MSC suspended in StemPro medium. After culturing overnight in a CO2 incubator, the culture fluid was removed by aspiration. Thereafter, the cell inserts were immersed for 10 minutes in Hoechist 33258-PBS solution, and the nuclei of cells adhered to the cell insert were stained. After washing with PBS, the backs of the cell inserts were observed under a fluorescence microscope and images were captured. Five random images of each cell insert were captured followed by counting the number of cells that transferred to the cell insert.

Row | Molecule | acceleration of expression of PDGF-BB [1] | acceleration of expression of PDGF-BB ([1]; listed as retinoic acid) | migration ability of mesenchymal stem cells [2]
1 | CC1=C(/C=C/C(C)=C/C=C/C(C)=C/C(=O)O)C(C)(C)CCC1 [tretinoin, all-trans retinoic acid] | concentration-dependent activity | accelerates expression of PDGF-BB | –
2 | B1 | – | – | significantly enhance the migration ability of stem cells

Source: patent US10017817B2, “Skin activation by acceleration of PDGF-BB activity” (Shiseido Company, Ltd., priority 2010, dated 2018)
